Source: patent US6281214A, “Biphenyl derivatives” (Eisai Co., Ltd, priority 1994, dated 2001)
Where two headings read alike, the source gives them in different places.

Key:
Set-up in all cases: species or system SD rats
serotonin S2 receptor = molecular target: T1, serotonin S2 receptor (Rattus norvegicus, UniProt P14842); assay: serotonin S2 receptor binding test ([3H] Ketanserin Binding Test); details: 1 nM [3H] Ketanserin, rat cortex, 37° C., 15 minutes
T1 construct: The receptor fraction prepared from the cortex was molten and suspended; from tissue; host or cells: cerebral cortex of SD rats (membrane fraction)
How it was run: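 Rat (SD, 6–8 weeks) cortical membranes in 50 mM Tris-HCl pH 7.4 were incubated with 1 nM [3H]ketanserin for 15 min at 37 °C, then filtered and counted. Nonspecific binding was defined with methysergide. IC50 was obtained by probit analysis and converted to Ki using the Scatchard-derived Kd.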

dopamine D2 receptor = molecular target: T2, dopamine D2 receptor (Rattus norvegicus, UniProt P61169); assay: dopamine D2 receptor binding test ([3H] Spiperone Binding Test); details: 1 nM [3H] Spiperone, rat corpus striatum, room temperature, 60 minutes
T2 construct: the receptor fraction prepared from the corpus striatum was molten and suspended; from tissue; host or cells: corpus striatum of SD rats (membrane fraction)
How it was run: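 Rat (SD, 6–8 weeks) corpus striatum membranes in 50 mM Krebs-Tris pH 7.4 were incubated with 1 nM [3H]spiperone at room temperature for 60 minutes, with nonspecific binding defined by excess spiperone. IC50 came from probit analysis; Ki was derived using radioligand concentration and Scatchard Kd.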

adrenergic α1 receptor = adrenergic α1 receptor binding test ([3H] Prazosin Binding Test); details: 1 nM [3H] Prazosin, rat cortex, room temperature, 60 minutes
How it was run: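 Rat (SD, 6-8 weeks) cerebral cortex membranes in 50 mM Tris-HCl pH 7.4 incubated with 1 nM [3H]prazosin for 60 min at room temperature; nonspecific binding defined with phentolamine. IC50 by probit method, converted to Ki using radioligand concentration and Scatchard-derived Kd.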

[1] = read-out: Ki value, dopamine D2 receptor

T2 sequence (P61169 whole entry): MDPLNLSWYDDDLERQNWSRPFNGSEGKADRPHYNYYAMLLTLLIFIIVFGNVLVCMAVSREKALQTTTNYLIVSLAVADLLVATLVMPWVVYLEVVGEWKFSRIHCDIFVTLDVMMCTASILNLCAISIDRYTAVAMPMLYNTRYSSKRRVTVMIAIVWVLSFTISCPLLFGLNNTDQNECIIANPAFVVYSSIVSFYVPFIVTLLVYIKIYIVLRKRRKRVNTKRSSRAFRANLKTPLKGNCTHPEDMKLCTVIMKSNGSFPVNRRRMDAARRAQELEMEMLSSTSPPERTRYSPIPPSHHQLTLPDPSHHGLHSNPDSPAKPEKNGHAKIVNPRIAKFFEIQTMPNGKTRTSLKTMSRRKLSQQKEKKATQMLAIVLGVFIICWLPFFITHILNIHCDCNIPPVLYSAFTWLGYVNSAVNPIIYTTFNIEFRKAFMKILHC
T1 sequence (P14842 whole entry): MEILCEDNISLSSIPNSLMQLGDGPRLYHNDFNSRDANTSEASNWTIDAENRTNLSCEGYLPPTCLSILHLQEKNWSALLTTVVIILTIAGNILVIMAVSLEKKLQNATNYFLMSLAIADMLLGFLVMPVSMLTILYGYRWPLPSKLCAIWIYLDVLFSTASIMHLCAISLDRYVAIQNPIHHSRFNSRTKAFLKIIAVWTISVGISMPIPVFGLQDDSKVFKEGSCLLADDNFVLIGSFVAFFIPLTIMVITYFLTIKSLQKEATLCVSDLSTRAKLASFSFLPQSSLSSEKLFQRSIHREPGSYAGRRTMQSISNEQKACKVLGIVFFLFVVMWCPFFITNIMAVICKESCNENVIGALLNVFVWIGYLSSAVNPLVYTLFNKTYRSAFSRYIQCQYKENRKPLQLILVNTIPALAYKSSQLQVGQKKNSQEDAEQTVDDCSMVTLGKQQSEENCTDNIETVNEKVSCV

SMILES | Ki (serotonin S2 receptor) [nM] | Ki (dopamine D2 receptor; Ki value, dopamine D2 receptor) [nM] | Ki (adrenergic α1 receptor) [nM] | Ki (dopamine D2 receptor; [1]) [nM]
CCC(=O)c1cc(-c2ccccc2)cc(N2CCN(CC)CC2)c1 [Example 130, 1-Ethyl-4-(3-phenyl-5-propionyl)phenylpiperazine] | 58 | 29.7 | 70.4 | 
CCC(F)c1cc(N2CCN(CC)CC2)cc(-c2ccccc2C)c1Cl (stereo not drawn) [Example 131, 1-Ethyl-4-[3-(2-tolyl)-4-chloro-5-(1-fluoropropyl)]phenylpiperazine] | 20.8 |  | > 1000 | 3.3
CCCc1cc(N2CCN(CC)CC2)cc(-c2ccccc2OC)c1OC [Example 132] | 392 |  | > 1000 | 281
CCN1CCN(c2cc(-c3ccccc3)c(OC)c(S(=O)(=O)CC)c2)CC1 [Example 133, 1-Ethyl-4-(3-phenyl-4-methoxy-5-ethanesulfonyl)phenylpiperazine] | 9.02 |  | > 1000 | 28.7
CCN1CCN(c2cc(-c3ccccc3)c(OC)c(S(=O)(=O)N(C)C)c2)CC1 [Example 134, 1-Ethyl-4-(3-phenyl-4-methoxy-5-dimemthylaminosulfonyl)phenylpiperazine] | 30.3 |  | > 1000 | 59.7
CCN1CCN(c2cc(-c3ccccc3)c(OC)c(S(=O)(=O)N3CCCC3)c2)CC1 [Example 135, 1-Ethyl-4-[3-phenyl-4-methoxy-5-(1-pyrrolidinylsulfonyl)]phenylpiperazine] | 16 |  | > 1000 | 42.1
CCN1CCN(c2cc(NS(=O)(=O)CC(F)(F)F)c(Cl)c(-c3ccccc3C)c2)CC1 [Example 136] | 89 |  | 472 | 14.2
CCN1CCN(c2cc(NS(=O)(=O)c3ccc(F)cc3)c(Cl)c(-c3ccccc3C)c2)CC1 [Example 137, 1-Ethyl-4-[3-(2-tolyl)-4-chloro-5-(4-fluorophenylsulfonylamino)]phenylpiperazine] | 144 |  | 312 | 0.64
CCC(O)c1cc(N2CCN(CC)CC2)cc(-c2ccccc2)c1Cl (stereo not drawn) [Example 138, 1Ethyl-4-[3-phenyl-4-chloro-5-(1-hydroxypropyl)]phenylpiperazine] | 25 |  | 9.33 | 2.89
CCN1CCN(c2cc(-c3ccccc3)c(Cl)c(S(=O)(=O)CC)c2)CC1 [Example 139, 1Ethyl-4-(3-phenyl-4-chloro-5-ethanesulfonyl)phenylpiperazine] | 5.38 |  | 68.7 | 2.34
CCC(=O)c1cc(N2CCN(CC)CC2)cc(-c2ccccc2)c1Cl [Example 140, 1-Ethyl-4-(3-phenyl-4-chloro-5-propionyl)phenylpiperazine] | 26.2 |  | 95.5 | 2.97
CCN1CCN(c2cc(-c3ccccc3C)c(Cl)c(S(=O)(=O)N3CCCC3)c2)CC1 [Example 141] | 92.7 |  | > 1000 | 24.9
CCC(F)c1cc(N2CCN(CC)CC2)cc(-c2ccc(F)cc2C)c1Cl (stereo not drawn) [Example 142, 1-Ethyl-4-{3-[2-(4-fluorotolyl)]-4-chloro-5-(1-fluoropropyl)}phenylpiperazine] | 20.5 |  | 653 | 1.77
CCC(F)c1cc(N2CCN(CC)CC2)cc(-c2ccccc2OC)c1Cl (stereo not drawn) [Example 143, 1-Ethyl-4-[3-(2-methoxyphenyl)-4-chloro-5-(1-fluoropropyl)]phenylpiperazine] | 156 |  | > 1000 | 16.9
CCC(F)c1cc(N2CCN(CC)CC2)cc(-c2ccc(F)cc2F)c1Cl (stereo not drawn) [Example 144, 1-Ethyl-4-[3-(2,4-difluorophenyl)-4-chloro-5-(1-fluoropropyl)]phenylpiperazine] | 15.7 |  | 67.4 | 0.81
CCC(F)c1cc(N2CCN(CC)CC2)cc(-c2ccccc2COC)c1Cl (stereo not drawn) [Example 145, 1-Ethyl-4-[3-(2-methoxymethylphenyl)-4-chloro-5-(1-fluoropropyl)]phenylpiperazine] | 72.5 |  | > 1000 | 8.28
CCN1CCN(c2cc(-c3ccc(F)cc3C)c(Cl)c(S(=O)(=O)NC3CC3)c2)CC1 [Example 146, 1-Ethyl-4-{3-[2(4-fluorotolyl)-]4-chloro-5-cyclopropaneaminosulfonyl}phenylpiperazine] | 13.2 |  | 349 | 0.83
CCC(C)c1cc(N2CCN(CC)CC2)cc(-c2ccccc2)c1Cl (stereo not drawn) [Example 147, 1-Ethyl-4-[3-phenyl-4-chloro-5-(1-methylpropyl)]phenylpiperazine] | 15.1 |  | 33.2 | 0.45

SMILES | Ki (serotonin S2 receptor) [nM] | Ki (dopamine D2 receptor; Ki value, dopamine D2 receptor) [nM] | Ki (adrenergic α1 receptor) [nM] | Ki (dopamine D2 receptor; [1]) [nM]
CCN1CCN(c2cc(-c3ccc(F)cc3C)c(Cl)c(S(=O)(=O)CC3CC3)c2)CC1 [Example 148, 1-Ethyl-4-{3-[2(4-fluorotolyl)]-4-chloro-5-cyclopropylmethylsulfonyl}phenylpiperazine] | 22.4 |  | 278 | 12.1
CCN1CCN(c2cc(-c3ccccc3)c(F)c(S(=O)(=O)CC)c2)CC1 [Example 149, 1-Ethyl-4-(3-phenyl-4-fluoro-5-ethanesulfonyl)phenylpiperazine] | 11.6 |  | 27.2 | 6.24
CCC(F)c1cc(N2CCN(CCCc3ccncc3)CC2)cc(-c2ccccc2C)c1Cl (stereo not drawn) [Example 150] | 97.1 |  | > 1000 | 7.98
CCCN1CCN(c2cc(-c3ccccc3C)c(Cl)c(C(F)CC)c2)CC1 (stereo not drawn) [Example 151, 1-Propyl-4-[3-(2-tolyl)-4-chloro-5-(1-fluoropropyl)]phenylpiperazine] | 27.7 |  | > 1000 | 3.52
CCCS(=O)(=O)Nc1cc(N2CCN(CC)CC2)cc(-c2ccccc2C)c1Cl [Example 153, 1-Ethyl-4-[3-(2-tolyl)-4-chloro-5-propanesulfonylamino]phenylpiperazine] | 4.19 |  | 68.7 | 1.53
CCN1CCN(c2cc(-c3ccccc3C)c(Cl)c(S(=O)(=O)N(C)C)c2)CC1 [Example 154, 1-Ethyl-4-[3-(2-tolyl)-4-chloro-5-dimethylaminosulfonyl]phenylpiperazine] | 153 |  | > 1000 | 2.59
CCN1CCN(c2cc(-c3ccccc3C)c(F)c(S(C)(=O)=O)c2)CC1 [Example 155] | 180 |  | 845 | 41
CCC(F)c1cc(N2CCN(CC)CC2)cc(-c2ccc(F)cc2Cl)c1Cl (stereo not drawn) [Example 156] | 29 |  | 513 | 1.39
CCC(CC)c1cc(N2CCN(CC)CC2)cc(-c2ccccc2C)c1Cl [Example 157, 1-Ethyl-4-[3-(2-tolyl)-4-chloro-5-(1-ethylpropyl)]phenylpiperazine] | 74.4 |  | > 1000 | 7.26
CCN1CCN(c2cc(-c3ccccc3C)c(Cl)c(S(C)(=O)=O)c2)CC1 [Example 158, 1-Ethyl-4-[3-(2-tolyl)-4-chloro-5-methanesulfonyl]phenylpiperazine] | 124 |  | > 1000 | 12.4
CCCS(=O)(=O)c1cc(N2CCN(CC)CC2)cc(-c2ccccc2C)c1Cl [Example 159, 1-Ethyl-4-[3-(2-tolyl)-4-chloro-5-propanesulfonyl]phenylpiperazine] | 8.81 |  | 596 | 3.93
C=CCCC(F)c1cc(N2CCN(CC)CC2)cc(-c2ccccc2C)c1Cl (stereo not drawn) [Example 160, 1-Ethyl-4-[3-(2-tolyl)-4-chloro-5-(1-fluoro-4-pentenyl)]phenylpiperazine] | 14.8 |  | > 1000 | 13.6
CCCNS(=O)(=O)c1cc(N2CCN(CC)CC2)cc(-c2ccccc2C)c1Cl [Example 161, 1-Ethyl-4-[3-(2-tolyl)-4-chloro-5-propylaminosulfonyl]phenylpiperazine] | 22.5 |  | 776 | 9.8
CCN1CCN(c2cc(NS(=O)(=O)CC(F)(F)F)c(Cl)c(-c3ccccc3Cl)c2)CC1 [Example 163, 1-Ethyl-4-[3-(2-chlorophenyl)-4-chloro-5-(2,2,2-trifluoroethyl)sulfonylamino]phenylpiperazine] | 63.6 |  | 195 | 10.2
CCC(F)c1cc(N2CCN(CC)CC2)cc(-c2ccccc2C)c1C#N (stereo not drawn) [Example 164, 1-Ethyl-4-[3-(2-tolyl)-4-cyano-5-(1-fluoropropyl)]phenylpiperazine] | 12 |  | > 1000 | 1.62
CCN1CCN(c2cc(NS(=O)(=O)CCCCl)c(Cl)c(-c3ccccc3C)c2)CC1 [Example 165] | 6.1 |  | > 1000 | 0.74
CCN1CCN(c2cc(-c3ccccc3C)c(Cl)c(S(=O)(=O)Nc3ccccc3)c2)CC1 [Example 166, 1-Ethyl-4-[3-(2-tolyl)-4-chloro-5-phenylaminosulfony]phenylpiperazine] | 5.42 |  | > 1000 | 1.42
CCN1CCN(c2cc(COCc3ccccc3)c(Cl)c(-c3ccccc3C)c2)CC1 [Example 167, 1-Ethyl-4-[3-(2-tolyl)-4-chloro-5-benzyloxymethyl]phenylpiperazine] | 23.8 |  | > 1000 | 45.4
